≈ marks a conversion by molar mass, not a printed value. Where two headings read alike, the source gives them in different places.
Experiments:
Human rotavirus Wa group = assay: Anti-rotavirus assay, prevention of cytopathic effect in MA104 cells (mixed treatment); type: cell-based; conditions: for EC50: Human rotavirus, MA104, rotavirus 0.01 MOI, MA-104 cells, 72 h, CPE; for TI (CC50/EC50): therapeutic index
Description: In order to study whether the chromones and indole alkaloids from the stem bark of C. alata had more broad antiviral activities, compounds 1–5 were also tested for their anti-rotavirus activity. Their ability to prevent the cytopathic effects of rotavirus in MA104 cells was tested according to our previous literatures, and their effects were measured in parallel with the determination of antiviral activity using ribavirin as a positive control.
(§1) The anti rotavirus activities were tested according to our previous literature. Human rotavirus Wa group was used to infect the cell culture MA104 in vitro, the 50% cytotoxicity concentration (CC50) and half maximal effective concentration (EC50) were evaluated, and ribavirin (C8H12N4O5, CAS No. […], a broad-spectrum antiviral drug) was used as a positive control. MA-104 cells (1 × 10^5 cells per well) were grown in 96-well plates for 48 h. The media were removed and replaced by new media containing serial dilutions of compounds under test. After incubation for 72 h, the media were discarded, and 5.0 μL of MTT solution was added to each well. Plates were then incubated at 37 °C for 4 h. The solution was removed, and 100 μL of 0.04 mol/L HCl-isopropanol was added to each well to dissolve formazan crystals. Using a microplate reader, the absorbance of each well was measured at 540 nm. After subtracting the background absorbance at 655 nm, the 50% CC50 of each compound was estimated by regression analysis.
In the mixed treatment assay, each compound was mixed with a 0.01 multiplicity of infection (MOI) of the rotaviruses at various concentrations (1–160 μg/mL) and incubated at 4 °C for 1 h. The mixtures were inoculated in triplicates onto near confluent MA-104 cell monolayers (1 × 10^5 cells per well) for 1 h with occasional rocking. The solution was removed, and the cells were replaced with eagles minimum essential medium (EMEM) containing 1 μg/mL trypsin. […] EC50 was estimated by regression analysis.

[1] = test system: tobacco mosaic virus (TMV); assay: Anti-TMV activity, half-leaf method; type: in vivo; conditions: in Nicotiana glutinosa; for inhibition at 20 µM: read-out: % Inhibition at 20 µM
Description: The anti-TMV activities were tested using the half-leaf method according to our previous studies, and Ningnanmycin (C16H23O8N7, CAS No. 156410-09-2), a commercial cytosine nucleoside peptide type antibiotics for plant disease in China, was used as a positive control. The virus was inhibited by mixing with the solution of tested compounds (20 μM in DMSO). After 30 min, the mixture was inoculated on the left side of the leaves of N. glutinosa, whereas the right side of the leaves was inoculated with the mixture of DMSO solution with the virus as control. The local lesion numbers were recorded 3–4 days after inoculation. Three repetitions were conducted for each compound. The inhibition rates were calculated according to the formula: inhibition rate (%) = [(C − T)/C] × 100%(1) where C is the average number of local lesions of the control and T is the average number of local lesions of the treatment. Ningnanmycin (20 μM in DMSO), a commercial virucide for plant disease in China, was used as a positive control.

[2] = Cytotoxicity in MA-104 cells (MTT); type: cell-based; conditions: African green monkey
Description: as §1

TMV = assay: Protective effect on TMV (pretreatment of tobacco plant before inoculation); type: in vivo; conditions: Tobacco mosaic virus; tobacco plant pretreated with 20 μM solution for 6 h before inoculation with TMV; read-out: protective effect inhibition rate
Description: For compounds with significant activities in half-leaf method assays, their protective effects on TMV were also evaluated by pretreating a tobacco plant with 20 μM solutions of compounds in DMSO, or a solution of DMSO for 6 h before inoculation with TMV.

With `COc1cc(CCCO)cc2c1CN(C)C2=O` [Compound 3, 6-(3-Hydroxypropyl)-4-methoxy-2-methylisoindolin-1-one] the EC50 (Human rotavirus Wa group) was 13.6 µg/mL (≈ 57.8 µM), the “TI (CC50/EC50)” value (Human rotavirus Wa group) was 15.3 and the IC50 [1] was 14.2 µM. It also gave an inhibition at 20 µM [1] of 66.5 ± 4%, a CC50 at 72 h [2] of 208 µg/mL (≈ 885 µM) and an inhibition at 20 µM (TMV) of 68.2%.

For `COc1cc(CO)cc2c1CN(C)C2=O` [Compound 2, 6-(Hydroxymethyl)-4-methoxy-2-methylisoindolin-1-one], the EC50 (Human rotavirus Wa group) was 14.8 µg/mL (≈ 71.4 µM), the “TI (CC50/EC50)” value (Human rotavirus Wa group) was 11.8 and the IC50 [1] was 22.6 µM. The inhibition at 20 µM [1] was 44.4 ± 3.5%, the CC50 at 72 h [2] was 175 µg/mL (≈ 845 µM) and the inhibition at 20 µM (TMV) was 40.8%.

With `CNCC(=O)N[C@@H](CO)C(=O)N[C@H]1[C@H](O)[C@@H](O)[C@H](n2ccc(N)nc2=O)O[C@@H]1C(N)=O` [Ningnanmycin, reference compound] the IC50 [1] was 37.2 µM and the inhibition at 20 µM [1] was 32.8 ± 3%.

In the case of `COc1cc(C)cc2c1CN(C)C2=O` [Compound 1, 4-Methoxy-2,6-dimethylisoindolin-1-one], the EC50 (Human rotavirus Wa group) is reported as 14.6 µg/mL (≈ 76.3 µM), the “TI (CC50/EC50)” value (Human rotavirus Wa group) is reported as 9.75 and the IC50 [1] is reported as 55.3 µM. For the same compound, the inhibition at 20 µM [1] was 26.5 ± 2.8% and the CC50 at 72 h [2] was 142 µg/mL (≈ 745 µM).

For `NC(=O)c1ncn([C@@H]2O[C@H](CO)[C@@H](O)[C@H]2O)n1` [Ribavirin, reference compound], the EC50 (Human rotavirus Wa group) was 12.2 µg/mL (≈ 50 µM), the “TI (CC50/EC50)” value (Human rotavirus Wa group) was 19.2 and the CC50 at 72 h ([2]; MA-104 cells, 72 h, MTT, read-out: CC50) was 234 µg/mL (≈ 960 µM).

For `CC(=O)Cc1c(CO)ccc2c1OC(C)(C)CC2=O` [Compound 4, 7-(Hydroxymethyl)-2,2-dimethyl-8-(2-oxopropyl)chroman-4-one], the EC50 (Human rotavirus Wa group) was 15.5 µg/mL (≈ 59.1 µM), the “TI (CC50/EC50)” value (Human rotavirus Wa group) was 12.4 and the IC50 [1] was 17.9 µM. For the same compound, the inhibition at 20 µM [1] was 52.3 ± 3.6%, the CC50 at 72 h [2] was 192 µg/mL (≈ 734 µM) and the inhibition at 20 µM (TMV) was 49.3%.

With `COc1cc(C)cc2c1CN(Cc1ccc3c(c1CC(C)=O)OC(C)(C)CC3=O)C2=O` [Compound 5, 2-((3,4-Dihydro-2,2-dimethyl-4-oxo-8-(2-oxopropyl)-2H-chromen-7-yl)methyl)-4-methoxy-6-methyl-isoindolin-1-one] the EC50 (Human rotavirus Wa group) was 12.8 µg/mL (≈ 30.4 µM), the “TI (CC50/EC50)” value (Human rotavirus Wa group) was 12.0 and the IC50 [1] was 43.4 µM. For the same compound, the inhibition at 20 µM [1] was 31.8 ± 3.3% and the CC50 at 72 h [2] was 154 µg/mL (≈ 364 µM).

Source: PMC9144915, “Indole Alkaloids and Chromones from the Stem Bark of Cassia alata and Their Antiviral Activities” (Molecules, 2022)
